{
  "source": "patent US9956268B2",
  "about": "“Neuropeptide Y treatment of autoimmune disease” (priority 2012, dated 2018)",
  "key": {"[1]": {"test_system": "CNS lymphocytes of recipients stimulated with MOG peptide 35-55", "experiment": "Cytokine secretion, CNS lymphocytes of recipients of donor cells", "assay_type": "in vivo, B6 mice", "description": "(§1) Thirty days after inoculation and after peak score of clinical attack, all spleens from each treatment group were aseptically removed, single cell suspensions prepared, and red cell lysis performed by adding 2-3 ml sterile water to single cells for 5 seconds, and once the solution became transparent, adding AIM-V media to a 50 ml tube. Splenocytes from grouped saline (mock) fed, 1 μg or 10 μg neuropeptide Y fed mice were re-stimulated with MOG peptide 35-55 at a final concentration of 10 μg/ml for 48 hours in serum free medium (AIM-V medium, Gibco BRL, Grand Island, N.Y.) with 2×10^5 cells/[…] in triplicate in 96 well U-bottomed plates in a humidified 5% CO2/95% air incubator at 37° C. Following incubation, cells were collected, washed twice in PBS, and viability determined by standard Trypan blue exclusion. Viable concentrations were adjusted to 10^7 cells/0.5 ml Dulbecco's PBS immediately prior to i.p. injection into active MOG peptide 35-55 immunized recipient mice during ongoing disease (˜day 17 post immunization). Following administration of neuropeptide Y or adoptive transfer, clinical outcome is measured by comparing the difference between group mean active treatment and placebo group scores from day 17-30 post immunization.\n(§2) Spleens and spinal cords (CNS) from each treatment group were aseptically removed and single cell suspensions prepared. In spinal cords, whole cords were passed through a cell strainer for CNS lymphocytes (B & D, Franklin Lakes, N.J.) and spun at 600 rpm several times to separate lymphocytes from CNS tissue. Splenocytes and cord lymphocytes from grouped saline fed or 10 mcg NPY fed mice were stimulated with 10 mcg MOG peptide 35-55×48 hours as previously described (5, 6). Murine cytokine responses were examined using a customized RayBio Mouse Cytokine Inflammatory Antibody Array including innate cytokine IL-1β and TNF-α, IL-17 (Teff), Th1-like (IL-2, IFN-γ), Th2-like cytokines (IL-4, IL-10, IL-13) and IL-12p70 using the RayBioantibody array Analysis tool application (RayBiotech, Inc, Norcross, Ga.). Results were grouped from mice fed saline or mice fed with NPY from grouped samples of two separate experiments (each sample performed in duplicate) and expressed as pg/ml±SEM (student t-test)."}, "[2]": {"test_system": "spinal cords of MOG peptide 35-55 immunized B6 mice", "experiment": "Spinal cord histology, inflammatory foci, actively fed mice", "assay_type": "in vivo", "conditions": "thirty days following immunization, mock fed 11.6±0.5", "description": "Following sacrifice, spinal cords were removed and immersion fixed in 10% neutral buffered formalin for a minimum of two weeks. After fixation, cords were sectioned in entirety in the horizontal plane at approximately 3 mm intervals and processed to paraffin. Paraffin blocks were sectioned at 6-8 microns, and step sections were stained with hematoxylin and eosin and examined by light microscopy. Cord sections were evaluated independently for foci of inflammation by a blinded observer (SAB), without knowledge of the treatment status of the mice prior to sacrifice. Spinal cord tissue was sampled in an identical fashion for each animal and numbers of inflammatory foci per high-powered field (HPF) (>20 perivascular lymphocytes) in the parenchyma were counted."}, "[3]": {"test_system": "splenic lymphocytes stimulated with MOG peptide 35-55", "experiment": "Cytokine secretion, MOG re-stimulated splenic lymphocytes of fed mice", "assay_type": "in vivo, B6 mice", "description": "as §2"}, "[4]": {"test_system": "MOG peptide 35-55 immunized B6 mice (experimental autoimmune encephalomyelitis)", "experiment": "Active EAE, ingested neuropeptide Y, clinical score", "assay_type": "in vivo", "conditions": "vs placebo, p<0.001 ANOVA"}, "[5]": {"test_system": "actively immunized recipients (ongoing disease)", "experiment": "Adoptive transfer of in vitro neuropeptide Y treated MOG restimulated activated macrophages", "assay_type": "in vivo", "conditions": "preliminary experiments"}, "[6]": {"test_system": "active MOG peptide 35-55 immunized recipient mice", "experiment": "Adoptive transfer of splenocytes from neuropeptide Y fed donors, clinical score of recipients", "assay_type": "in vivo, B6 mice", "conditions": "placebo donors maximum 2.3"}, "[7]": {"test_system": "splenocytes of recipients stimulated with MOG peptide 35-55", "experiment": "Cytokine secretion, splenic lymphocytes of recipients of donor cells", "assay_type": "in vivo, B6 mice", "description": "as §1, §2"}, "[8]": {"test_system": "experimental autoimmune encephalomyelitis", "conditions": "parenteral, mice; cited from earlier work"}, "[9]": {"experiment": "Toxicity on extended oral administration", "assay_type": "in vivo", "conditions": "orally administered to mice over an extended time period"}, "[10]": {"test_system": "CD4+CD25+FoxP3+ Treg", "experiment": "Phenotypic analysis (FACS) of Treg frequency", "assay_type": "in vivo, B6 mice", "conditions": "data not shown", "description": "CD25 and FOXP3 expression by CD3+CD4+ lymphocytes was analyzed using the Beckman Coulter 10-Color Gallios Flow Cytometer and mouse regulatory T Cell Staining Kit with PE Foxp3 FJK-16s, FITC CD4, APC CD25 (eBioscience, San Diego, Calif.) following the manufacturer's instructions."}, "[11]": {"test_system": "CNS lymphocytes stimulated with MOG peptide 35-55", "experiment": "Cytokine secretion, MOG re-stimulated CNS (spinal cord) lymphocytes of fed mice", "assay_type": "in vivo, B6 mice", "description": "as §2"}, "[12]": {"test_system": "spinal cords of recipient mice", "experiment": "Spinal cord histology, inflammatory foci, recipients of adoptively transferred cells", "assay_type": "in vivo, B6 mice", "conditions": "thirteen days following adoptive transfer, placebo donors 7.48±0.28", "description": "as §1, with “Viable concentrations were adjusted to 10^7 cells/0.5 ml Dulbecco's PBS immediately prior to i.p. injection into active MOG peptide 35-55 immunized recipient mice during ongoing disease (˜day 17 post immunization).” left out\nFollowing sacrifice, spinal cords were removed and immersion fixed in 10% neutral buffered formalin for a minimum of two weeks. […] Cord sections were evaluated independently for foci of inflammation by a blinded observer (SAB), without knowledge of the treatment status of the mice prior to sacrifice. […]"}, "[13]": {"test_system": "innate immune cytokines IL-1β or TNF-α", "conditions": "oral, recent EAE experiments; cited from earlier work"}, "[14]": {"conditions": "CNS lymphocytes of recipients of fed donor cells vs mock"}, "[15]": {"conditions": "CNS lymphocytes of recipients, 10 mcg fed group vs mock"}, "[16]": {"conditions": "both fed groups (1 & 10 mcg) vs mock fed"}, "[17]": {"conditions": "splenic lymphocytes of recipients of fed donor cells vs mock"}},
  "data": [
    {"substance": "Neuropeptide Y", "values": [
      {"measurement": "IL-1β level", "setting": "[1]; [14]", "result": "significant decreases"},
      {"measurement": "IL-17 (Teff) level", "setting": "[1]; [14]", "result": "significant decreases"},
      {"measurement": "IL-12 level", "setting": "[1]; CNS lymphocytes of recipients of fed donor cells vs mock, p<0.03 (FIG. 8 legend)", "result": "decreased"},
      {"measurement": "MOG induced IL-10 production", "setting": "[1]; CNS lymphocytes of recipients, 1 mcg fed group vs mock", "result": "increased"},
      {"measurement": "IFN-γ level", "setting": "[1]; [15]", "result": "significant decreases"},
      {"measurement": "IL-2 level", "setting": "[1]; [15]", "result": "significant decreases"},
      {"measurement": "TNF-α level", "setting": "[1]; [15]", "result": "significant decreases"},
      {"measurement": "MOG induced IL-13 production", "setting": "[1]; CNS lymphocytes of recipients, both dosed groups vs mock", "result": "increased"},
      {"measurement": "mean group inflammatory score (inflammatory foci)", "setting": "[2]; 1 mcg fed group", "result": "6.4±0.16"},
      {"measurement": "mean group inflammatory score (inflammatory foci)", "setting": "[2]; 10 mcg fed group", "result": "5.55±0.28"},
      {"measurement": "IL-12p70 level", "setting": "[3]; 10 mcg dosed vs mock fed", "result": "decreased"},
      {"measurement": "TNF-α level", "setting": "[3]; 10 mcg dosed vs mock fed", "result": "decreased"},
      {"measurement": "IFN-γ level", "setting": "[3]; [16]", "result": "significant decreases"},
      {"measurement": "IL-1β level", "setting": "[3]; [16]", "result": "significant decreases"},
      {"measurement": "IL-2 level", "setting": "[3]; [16]", "result": "significant decreases"},
      {"measurement": "MOG induced IL-4 production", "setting": "[3]; dosed vs mock dosed", "result": "increased"},
      {"measurement": "MOG induced IL-10 production", "setting": "[3]; dosed vs mock dosed", "result": "increased"},
      {"measurement": "MOG induced IL-13 production", "setting": "[3]; dosed vs mock dosed", "result": "increased"},
      {"measurement": "group clinical score", "setting": "[4]; 1 mcg fed (gavage) from day 17, days 17-30 post immunization", "result": "significant decreases in group clinical scores"},
      {"measurement": "group clinical score", "setting": "[4]; 10 mcg fed (gavage) from day 17, days 17-30 post immunization", "result": "significant decreases in group clinical scores"},
      {"measurement": "ongoing disease after adoptive transfer", "setting": "[5]", "result": "robust inhibition"},
      {"measurement": "group clinical score at day 30", "setting": "[6]; recipients of donor splenocytes from 1 mcg fed mice", "result": 1.4},
      {"measurement": "group clinical score at day 30", "setting": "[6]; recipients of donor splenocytes from 10 mcg fed mice", "result": 0.88},
      {"measurement": "IFN-γ level", "setting": "[7]; [17]", "result": "significant decreases"},
      {"measurement": "IL-1β level", "setting": "[7]; [17]", "result": "significant decreases"},
      {"measurement": "IL-12 level", "setting": "[7]; [17]", "result": "significant decreases"},
      {"measurement": "IL-17 (Teff) level", "setting": "[7]; [17]", "result": "significant decreases"},
      {"measurement": "MOG induced IL-13 production", "setting": "[7]; [17]", "result": "increased"},
      {"measurement": "TNF-α level", "setting": "[7]; [17]", "result": "significant decreases"},
      {"measurement": "IL-2 level", "setting": "[7]; splenic lymphocytes of recipients, 10 mcg fed donor cells vs mock", "result": "significant decreases"},
      {"measurement": "induction of experimental autoimmune encephalomyelitis", "setting": "[8]", "result": "significantly inhibits"},
      {"measurement": "toxicity", "setting": "[9]", "result": "no detectable toxicity"},
      {"measurement": "CD4+CD25+FoxP3+ cell frequency", "setting": "[10]; actively fed mice vs mock fed", "result": "no significant increase"},
      {"measurement": "CD4+CD25+FoxP3+ cell frequency", "setting": "[10]; recipients of actively fed donor cells vs mock", "result": "no significant increase"},
      {"measurement": "MOG induced IL-13 production", "setting": "[11]; dosed vs mock dosed", "result": "increased"},
      {"measurement": "IFN-γ level", "setting": "[11]; fed vs mock fed", "result": "significant decreases"},
      {"measurement": "IL-1β level", "setting": "[11]; fed vs mock fed", "result": "significant decreases"},
      {"measurement": "IL-2 level", "setting": "[11]; fed vs mock fed", "result": "significant decreases"},
      {"measurement": "IL-12 level", "setting": "[11]; fed vs mock fed", "result": "significant decreases"},
      {"measurement": "IL-17 (Teff) level", "setting": "[11]; fed vs mock fed", "result": "significant decreases"},
      {"measurement": "TNF-α level", "setting": "[11]; fed vs mock fed", "result": "significant decreases"},
      {"measurement": "mean group inflammatory score (CNS inflammatory foci)", "setting": "[12]; recipients of 1 mcg fed donors", "result": "4.87±0.22"},
      {"measurement": "mean group inflammatory score (CNS inflammatory foci)", "setting": "[12]; recipients of 10 mcg fed donors", "result": "5.91±0.22"}
    ]},
    {"substance": "Adrenocorticotropin hormone (SYSMEHFRWGKPVGKKRRPVKVYPNGAEDESAEAFPLEF; Corticotropin; UniProt P01189 138-176, looked up) [ACTH]", "values": [
      {"measurement": "reduction of innate immune cytokines IL-1β or TNF-α", "setting": "[13]", "result": "no reduction"}
    ]}
  ]
}
